Measurements reported in patent US8580799B2 (priority 2008, dated 2013).
Read-outs that look alike come from different tables or passages of the source.

Assay: Measurement of logP values by HPLC on reversed phase columns (EEC directive 79/831 Annex V.A8)
Format: physicochemical
Conditions: for chromatographic logP: reversed phase HPLC column
[1] = method [b]: LC-MS at pH 2.7 with 0.1% formic acid in water and acetonitrile, linear gradient 10% to 95% acetonitrile
[2] = HCOOH (formic acid) method, read-out: log P(HCOOH)
[3] = method [b]: LC-MS at pH 2.7 with 0.1% formic acid in water and acetonitrile, linear gradient 10% to 95% acetonitrile, read-out: logp

SMILES	logp [1]	chromatographic logP [2]	chromatographic logP [3]
Cc1nsnc1C(=NOCc1cccc(NC(=O)OC2CCCC2)n1)c1ccccc1 [Example 21]	5.11^[b]	–	–
Cc1nsnc1C(=NOCc1cccc(NC(=O)OCc2ccccc2)n1)c1ccccc1 [Example 22]	4.92^[b]	–	–
CCCCCCOC(=O)Nc1cccc(CON=C(c2ccccc2)c2nsnc2C)n1 [Example 23]	5.99^[b]	–	–
C=CCCOC(=O)Nc1cccc(CON=C(c2ccccc2)c2nsnc2C)n1 [Example 24]	4.65^[b]	–	–
CC#CCOC(=O)Nc1cccc(CON=C(c2ccccc2)c2nsnc2C)n1 [Example 25, But-2-yn-1-yl {6-[({[(4-methyl-1,2,5-thiadiazol-3-yl)(phenyl)methylidene]amino}oxy)-methyl]pyridin-2-yl}carbamate]	–	4.28	4.28
CCCCCCCOC(=O)Nc1cccc(CON=C(c2ccccc2)c2nsnc2C)n1 [Example 26]	6.42^[b]	–	–
CCCCC(CC)COC(=O)Nc1cccc(CON=C(c2ccccc2)c2nsnc2C)n1 (stereo not shown) [Example 27]	6.76^[b]	–	–
Cc1nsnc1C(=NOCc1cccc(NC(=O)OCCCCC(F)(F)F)n1)c1ccccc1 [Example 28]	4.97^[b]	–	–
Cc1nsnc1C(=NOCc1cccc(N(C(=O)OC(C)(C)C)C(=O)OC(C)(C)C)n1)c1ccccc1 [Example 29]	5.47^[b]	–	–
Cc1nsnc1C(=NOCc1cccc(NC(=O)OC(C)(C)C)n1)c1ccccc1 [Example 30, tert-butyl {6-[({[(4-methyl-1,2,5-thiadiazol-3-yl)(phenyl)methylene]-amino}oxy)methyl]pyridin-2-yl}carbamate]	–	4.97	4.97
CCCCCCNc1cccc(CON=C(c2ccccc2)c2nsnc2C)n1 [Example 31, N-hexyl-6-[({[(4-methyl-1,2,5-thiadiazol-3-yl)(phenyl)methylidene]amino}oxy)methyl]-pyridin-2-amine]	–	3.11	3.11
CCCCNc1cccc(CON=C(c2ccccc2)c2nsnc2C)n1 [Example 32]	2.41^[b]	–	–
CCNc1cccc(CON=C(c2ccccc2)c2nsnc2C)n1 [Example 33]	1.89^[b]	–	–
CCCNc1cccc(CON=C(c2ccccc2)c2nsnc2C)n1 [Example 34]	2.11^[b]	–	–
C=CCCCCNc1cccc(CON=C(c2ccccc2)c2nsnc2C)n1 [Example 35]	2.78^[b]	–	–
Cc1nsnc1C(=NOCc1cccc(NCCCc2ccccc2)n1)c1ccccc1 [Example 36]	2.98^[b]	–	–
Cc1nsnc1C(=NOCc1cccc(NCCC2CCCCC2)n1)c1ccccc1 [Example 37]	3.46^[b]	–	–
CCCCCNc1cccc(CON=C(c2ccccc2)c2nsnc2C)n1 [Example 38]	2.7^[b]	–	–
CCCCCCNc1cccc(CON=C(c2ccccc2)c2nsnc2C(F)(F)F)n1 [Example 39]	3.44^[b]	–	–
CCCCC#Cc1nc(CON=C(c2ccccc2)c2nsnc2C(F)(F)F)cs1 [Example 40]	6.37^[b]	–	–
CCCCC#Cc1nc(CON=C(c2ccccc2)c2nsnc2C)cs1 [Example 41]	5.72^[b]	–	–
CCCCCCNc1cccc(CON=C(c2cccc(F)c2)c2nonc2C)n1 [Example 42]	3.57^[b]	–	–
CCCCCCNc1cccc(CON=C(c2ccccc2)c2nonc2C)n1 [Example 43]	3.31^[b]	–	–

SMILES	logp [1]	chromatographic logP [2]	chromatographic logP [3]
CCCCC#Cc1nc(CON=C(c2ccc(F)cc2)c2nonc2C)cs1 [Example 44]	5.99^[b]	–	–
CCCCC#Cc1nc(CON=C(c2ccccc2)c2nonc2C)cs1 [Example 45]	5.51^[b]	–	–
CCCCC#Cc1nc(CON=C(c2cccc(F)c2)c2nonc2C)cs1 [Example 46]	5.59^[b]	–	–
CCCCC#Cc1nc(CON=C(c2ccccc2F)c2nonc2C)cs1 [Example 47]	5.39^[b]	–	–
Cn1nccc1C(=NOCc1csc(N)n1)c1ccccc1 [Example 48]	1.5^[b]	–	–
Cn1nccc1C(=NOCc1csc(Br)n1)c1ccccc1 [Example 49]	3.39^[b]	–	–
Cn1nccc1C(=NOCc1csc(NC(=O)COc2ccccc2)n1)c1ccccc1 [Example 50]	3.55^[b]	–	–
Cn1nccc1C(=NOCc1csc(NC(=O)CCc2ccccc2)n1)c1ccccc1 [Example 51]	3.69^[b]	–	–
CCCCCC(=O)Nc1nc(CON=C(c2ccccc2)c2ccnn2C)cs1 [Example 52]	3.8^[b]	–	–
Cn1nccc1C(=NOCc1csc(NC(=O)Cc2ccccc2)n1)c1ccccc1 [Example 53]	3.42^[b]	–	–
Cn1nccc1C(=NOCc1csc(NC(=O)C(C)(C)C)n1)c1ccccc1 [Example 54]	3.46^[b]	–	–
CCCCC(=O)Nc1nc(CON=C(c2ccccc2)c2ccnn2C)cs1 [Example 55]	3.39^[b]	–	–
CCCCCCC(=O)Nc1nc(CON=C(c2ccccc2)c2ccnn2C)cs1 [Example 56]	4.18^[b]	–	–
Cn1nccc1C(=NOCc1csc(NC(=O)OCCCCCl)n1)c1ccccc1 [Example 57]	3.65^[b]	–	–
CCCCOC(=O)Nc1nc(CON=C(c2ccccc2)c2ccnn2C)cs1 [Example 58]	3.76^[b]	–	–
CCCCCCOC(=O)Nc1nc(CON=C(c2ccccc2)c2ccnn2C)cs1 [Example 59]	4.59^[b]	–	–
CCCCCOC(=O)Nc1nc(CON=C(c2ccccc2)c2ccnn2C)cs1 [Example 60]	4.16^[b]	–	–
C#CCCOC(=O)Nc1nc(CON=C(c2ccccc2)c2ccnn2C)cs1 [Example 61]	3.11^[b]	–	–
Cn1nccc1C(=NOCc1csc(C#CC2CC2)n1)c1ccccc1 [Example 62]	3.87^[b]	–	–
Cn1nccc1C(=NOCc1csc(NC(=O)OC(C)(C)C)n1)c1ccccc1 [Example 63]	3.69^[b]	–	–
CCOC(=O)Nc1nc(CON=C(c2ccccc2)c2ccnn2C)cs1 [Example 64]	3^[b]	–	–
Cc1nsnc1C(=NO)c1ccccc1 [N-hydroxy-1-(4-methyl-1,2,5-thiadiazol-3-yl)-1-phenylmethanimine]	–	2.26	–
CCCCCCN(C(=O)OC(C)(C)C)c1cccc(CO)n1 [tert-butyl hexyl[6-(hydroxymethyl)pyridin-2-yl]carbamate]	–	3.94	–
